≈ marks a conversion by molar mass, not a printed value.
Key:
[1] = Thermodynamic solubility assay (THESA), equilibrium solubility; assay type: physicochemical; details: 22 °C, aqueous buffer, thermodynamic from solid; 50 mM phosphate buffer (pH 6.5), room temperature (22±2° C.)
Description: The thermodynamic (equilibrium) solubility is the saturation solubility of a compound at the end of the dissolution process, where the dissolved compound is in equilibrium with the undissolved material in excess. The thermodynamic solubility is determined by dispensing a solid compound into a solvent. This is often deemed as the true solubility of the compound and is a critical piece of information in formulation development. The thermodynamic solubility assay (THESA) is a widely used tool for the measurement of equilibrium solubility for the later drug discovery process and is considered as a gold standard solubility assay.
Approximately 1-2 mg of each compound was added into 300 μL of 50 mM phosphate buffer (pH 6.5) at room temperature (22±2° C.). Each sample is placed in a microanalysis tube, which was sonicated for 1 h and shaken for 2 h. All suspensions were left overnight (about 16 h). On the next day, the samples were filtered into a V-bottom plate with a micronic filterplate to separate the solid material from the solution. Then, all solutions were diluted into 96 well V-bottom microplates and analyzed by UPLC-UV. The calibration line was established by UPLC using 5 different dilutions of the compound in a DMSO stock solution, made in micronic tubes (concentration approximately 1 mg/mL). Dilutions took place with DMSO. From this regression equation the solubility of the compound was determined. In cases where the drug was completely dissolved in the buffer, the value for equilibrium solubility was assumed to be higher than the value determined by UPLC and reported as such.

[2] = Lyophilisation solubility assay (LYSA), kinetic solubility; assay type: physicochemical; details: aqueous buffer; 0.05 M phosphate buffer (pH 6.5), from 10 mM DMSO stock after evaporation
Description: The solubility of a substance can be broadly defined as the maximum amount of the substance that dissolves in a specified volume of solvent. However, it is important to understand that the solubility of a compound can vary drastically depending on the condition of the solvent (e.g. temperature and pH) and the physiochemical properties of the compound (e.g. ionisation and crystallinity). These critical factors need to be considered during solubility determination in order to generate high quality solubility data that will be useful in the progression of compounds through the discovery and development stages. The kinetic solubility of a compound is the maximum solubility of the fastest precipitating species of the compound; this is often measured using a stock solution of the compound dissolved in an organic solvent, typically dimethyl sulfoxide (DMSO), as the starting material. […] The precipitate formed, which is rarely determined during the assessment, could be any combination of various possible solid states of the compound. Given the level of supersaturation that could occur when an organic solvent is diluted in water, kinetic solubility values are typically higher than the corresponding thermodynamic (equilibrium) solubility values. Solubility assays in the early discovery process often determine kinetic solubility. The lyophilisation solubility assay (LYSA) is a high throughput kinetic solubility assay for the early drug discovery process.
Samples were prepared in duplicate from 10 mM DMSO stock solution. After evaporation of DMSO with a centrifugal vacuum evaporator, the compounds were solved in 0.05 M phosphate buffer (pH 6.5), stirred for one hour and shaken for two hours. After one night, the solutions were filtered using a microtiter filter plate. Then the filtrate and its 1/10 dilution were analyzed by HPLC-UV. […] The results were in μg/mL. […] It should be noted that metastable solid phases may form during the evaporation step, and the method might therefore produce higher solubility values than assays using the stable polymorph as the starting material.

human TLR7 = molecular target: T1, human TLR7 (Homo sapiens, UniProt Q9NYK1); assay: HEK293-Blue-hTLR7 cells assay (SEAP reporter, NF-κB activation)
T1 sequence (Q9NYK1 27-1049): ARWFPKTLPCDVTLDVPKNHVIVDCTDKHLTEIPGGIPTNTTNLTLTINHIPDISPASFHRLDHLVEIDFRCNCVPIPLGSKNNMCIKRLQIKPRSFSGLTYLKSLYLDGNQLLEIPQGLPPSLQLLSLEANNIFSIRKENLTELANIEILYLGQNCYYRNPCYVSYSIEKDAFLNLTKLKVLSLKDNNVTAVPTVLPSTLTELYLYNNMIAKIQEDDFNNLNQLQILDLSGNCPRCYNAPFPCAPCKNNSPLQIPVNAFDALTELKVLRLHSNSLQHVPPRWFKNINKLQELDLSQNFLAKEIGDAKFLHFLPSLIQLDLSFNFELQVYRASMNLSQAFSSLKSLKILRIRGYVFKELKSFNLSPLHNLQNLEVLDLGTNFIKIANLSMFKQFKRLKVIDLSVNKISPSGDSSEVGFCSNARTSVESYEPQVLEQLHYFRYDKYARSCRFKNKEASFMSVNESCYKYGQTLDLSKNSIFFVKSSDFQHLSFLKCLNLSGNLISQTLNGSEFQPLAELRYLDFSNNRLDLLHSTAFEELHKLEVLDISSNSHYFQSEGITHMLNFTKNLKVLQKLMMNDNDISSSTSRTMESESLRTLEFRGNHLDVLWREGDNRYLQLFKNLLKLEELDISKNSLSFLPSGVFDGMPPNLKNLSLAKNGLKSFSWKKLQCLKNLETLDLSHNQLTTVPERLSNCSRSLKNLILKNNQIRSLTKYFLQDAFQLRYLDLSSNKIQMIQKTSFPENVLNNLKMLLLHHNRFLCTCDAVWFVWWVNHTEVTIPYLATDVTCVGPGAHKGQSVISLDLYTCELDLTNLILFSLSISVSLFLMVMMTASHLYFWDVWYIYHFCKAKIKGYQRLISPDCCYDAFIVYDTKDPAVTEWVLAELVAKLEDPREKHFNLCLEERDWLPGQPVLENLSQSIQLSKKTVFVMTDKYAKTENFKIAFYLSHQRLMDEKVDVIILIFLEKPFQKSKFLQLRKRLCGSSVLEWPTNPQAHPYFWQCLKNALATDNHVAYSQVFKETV
Description: A stable HEK293-Blue-h TLR7 cell line was purchased from InvivoGen (Cat. #: hkb-htlr7, San Diego, California, USA). These cells were designed for studying the stimulation of human TLR7 by monitoring the activation of NF-κB. A SEAP (secreted embryonic alkaline phosphatase) reporter gene was placed under the control of the IFN-β minimal promoter fused to five NF-κB and AP-1-binding sites. The SEAP was induced by activating NF-κB and AP-1 via stimulating HEK-Blue hTLR7 cells with TLR7 ligands. Therefore the reporter expression was regulated by the NF-κB promoter upon stimulation of human TLR7 for 20 hrs. The cell culture supernatant SEAP reporter activity was determined using QUANTI-Blue™ kit (Cat. #: rep-qb1, Invivogen, San Diego, Ca, USA) at a wavelength of 640 nm, a detection medium that turns purple or blue in the presence of alkaline phosphatase.
HEK293-Blue-hTLR7 cells were incubated at a density of 250,000˜450,000 cells/mL in a volume of 180 μL in a 96-well plate in Dulbecco's Modified Eagle's medium (DMEM) containing 4.5 g/L glucose, 50 U/mL penicillin, 50 mg/mL streptomycin, 100 mg/mL Normocin, 2 mM L-glutamine, 10% (V/V) heat-inactivated fetal bovine serum for 24 hrs. Then the HEK293-Blue-hTLR7 cells were incubated with addition of 20 μL test compound in a serial dilution in the presence of final DMSO at 1% and perform incubation under 37° C. in a CO2 incubator for 20 hrs.

[3] = Dissolution test in fasted state simulated intestinal fluid (FaSSIF); assay type: physicochemical; details: FaSSIF pH 6.5, room temperature
Description: 0.420 g of NaOH (pellets), 3.954 g of NaH2PO4 (monohydrate) and 6.186 g of NaCl were dissolved in about 0.9 L of purified water. The pH was adjusted to 6.5 with either 1 N NaOH or 1 N HCl. The total volume of the mixture was made up to 1.0 L with purified water at room temperature.
To about 50 mL of blank FaSSIF buffer was added 0.2240 g of SIF Powder Original (Biorelevant.com Ltd, Product code: FFF03, UK), the mixture was stirred until powder was completely dissolved. The total volume of the mixture was made up to 100 mL with blank FaSSIF buffer at room temperature.
(§1) Approximately 1-2 mg of each compound was added in excess into […] of buffer at room temperature. Each sample is placed in a microanalysis glass tube, which was sonicated for 1 h and agitated for 2 h. All suspensions were left overnight (about 16 h). On the next day, all pH values were measured with a pH-meter and the samples were filtered into a V-bottom plate with a micronic filterplate to separate the solid material from the solution. Then, all solutions were diluted into 96 well V-bottom microplates and analyzed by UPLC-UV.
(§2) The calibration line was established by UPLC using 5 different dilutions of the compound in a DMSO stock solution, made in micronic tubes (concentration approximately 1 mg/mL). Dilutions took place with DMSO (in special circumstances, with acetonitrile, or 80% HCl 0.1 N/20% acetonitrile). From this regression equation the solubility of the compound was determined. In cases where the compound was completely dissolved in the buffer, the value for equilibrium solubility was assumed to be higher than the value determined by UPLC and reported as such.

[4] = Dissolution test in fed state simulated intestinal fluid (FeSSIF); assay type: physicochemical; details: FeSSIF pH 5, room temperature
Description: 4.040 g of NaOH (pellets), 8.650 g of glacial acetic acid and 11.874 g of NaCl were dissolved in about 0.9 L of purified water. The pH was adjusted to 5 with either 1 N NaOH or 1 N HCl. The total volume of the mixture was made up to 1.0 L with purified water at room temperature.
To about 50 mL of blank FeSSIF buffer was added 1.120 g of SIF Powder Original (Biorelevant.com Ltd, Product code: FFF03, UK), the mixture was stirred until powder was completely dissolved. The total volume of the mixture was made up to 100 mL with blank FeSSIF buffer at room temperature.
as §1, §2

solubility thermodynamic [1]	solubility kinetic [2]	EC50 (human TLR7)	FaSSIF [3]	FeSSIF [4]	SMILES
929 µg/mL (≈ 2.3 mM)	> 540 µg/mL	34 nM	2527 µg/mL	3077 µg/mL	CN(C)CCNc1ccc(Cn2c(=O)[nH]c3c(N)nc(P(C)(C)=O)nc32)cn1 [Example 1, 6-amino-9-[[6-[2-(dimethylamino)ethylamino]-3-pyridyl]methyl]-2-dimethylphosphoryl-7H-purin-8-one]
2780 µg/mL (≈ 6.85 mM)	> 540 µg/mL	19 nM	3519 µg/mL	4801 µg/mL	CN(C)CCOc1ccc(Cn2c(=O)[nH]c3c(N)nc(P(C)(C)=O)nc32)cn1 [Example 2, 6-amino-9-[[6-[2-(dimethylamino)ethoxy]-3-pyridyl]methyl]-2-dimethylphosphoryl-7H-purin-8-one]
–	> 560 µg/mL	84 nM	–	–	CCN(C)CCNc1ccc(Cn2c(=O)[nH]c3c(N)nc(P(C)(C)=O)nc32)cn1 [Example 12, 6-amino-2-dimethylphosphoryl-9-[[6-[2-[ethyl(methyl)amino]ethylamino]-3-pyridyl]methyl]-7H-purin-8-one]
2380 µg/mL (≈ 5.53 mM)	> 530 µg/mL	–	2368 µg/mL	4672 µg/mL	CC[P@@](C)(=O)c1nc(N)c2[nH]c(=O)n(Cc3ccc(N4CCN(C)CC4)nc3)c2n1 [Example 13-A, 6-amino-2-[(R)-ethyl(methyl)phosphoryl]-9-[[6-(4-methylpiperazin-1-yl)-3-pyridyl]methyl]-7H-purin-8-one]
1900 µg/mL (≈ 4.53 mM)	> 560 µg/mL	–	1799 µg/mL	2371 µg/mL	CC[P@@](C)(=O)c1nc(N)c2[nH]c(=O)n(Cc3ccc(OCCN(C)C)nc3)c2n1 [Example 16-A, 6-amino-9-[[6-[2-(dimethylamino)ethoxy]-3-pyridyl]methyl]-2-[(R)-ethyl(methyl)phosphoryl]-7H-purin-8-one]
3450 µg/mL (≈ 8.23 mM)	> 560 µg/mL	–	784 µg/mL	1464 µg/mL	CC[P@](C)(=O)c1nc(N)c2[nH]c(=O)n(Cc3ccc(OCCN(C)C)nc3)c2n1 [Example 16-B, 6-amino-9-[[6-[2-(dimethylamino)ethoxy]-3-pyridyl]methyl]-2-[(S)-ethyl(methyl)phosphoryl]-7H-purin-8-one]
–	> 540 µg/mL	45 nM	–	–	CC[P@@](C)(=O)c1nc(N)c2[nH]c(=O)n(Cc3ccc(NCCNC)nc3)c2n1 [Example 17, 6-amino-2-[(R)-ethyl(methyl)phosphoryl]-9-[[6-[2-(methylamino)ethylamino]-3-pyridyl]methyl]-7H-purin-8-one]
3000 µg/mL (≈ 6.94 mM)	> 580 µg/mL	–	3436 µg/mL	4536 µg/mL	CCC[P@](C)(=O)c1nc(N)c2[nH]c(=O)n(Cc3ccc(NCCN(C)C)nc3)c2n1 [Example 18-A, 6-amino-9-[[6-[2-(dimethylamino)ethylamino]-3-pyridyl]methyl]-2-[(S)-methyl(propyl)phosphoryl]-7H-purin-8-one]
4020 µg/mL (≈ 9.3 mM)	> 580 µg/mL	–	>3767 µg/mL	>5000 µg/mL	CCC[P@@](C)(=O)c1nc(N)c2[nH]c(=O)n(Cc3ccc(NCCN(C)C)nc3)c2n1 [Example 18-B, 6-amino-9-[[6-[2-(dimethylamino)ethylamino]-3-pyridyl]methyl]-2-[(R)-methyl(propyl)phosphoryl]-7H-purin-8-one]
2370 µg/mL (≈ 5.47 mM)	> 580 µg/mL	9 nM	–	–	CCP(=O)(CC)c1nc(N)c2[nH]c(=O)n(Cc3ccc(NCCN(C)C)nc3)c2n1 [Example 19, 6-amino-2-diethylphosphoryl-9-[[6-[2-(dimethylamino)ethylamino]-3-pyridyl]methyl]-7H-purin-8-one]
